Source: US12552790B2, “Positive modulators of the muscarinic acetylcholine receptor M4” (Vanderbilt University, priority 2023, dated 2026)

Key:
[1] = MDCK-MDR1 efflux ratio and permeability; assay type: in vitro ADME; conditions: dog, MDCK-MDR1
Excerpt: (§1) Compounds may be tested in in vitro assays to investigate both metabolism and pharmacokinetics. These assays may be performed according to known methods as generally described in the following references: Conde-Ceide et al. ACS Med. Chem. Lett. 2015, 6, 716-720; Morris et al. J. Med. Chem. 2014, 57, 10192-10197; and Bubser et al. ACS Chem. Neurosci. 2014, 5, 920-942.

MDCK-MDR1 = MDCK-MDR1 efflux ratio and permeability; assay type: in vitro ADME; conditions: efflux ratio
Excerpt: as §1

Dog intrinsic clearance = assay type: in vitro ADME
Excerpt: as §1

P450 2D6 = P450 2D6 (Homo sapiens, UniProt P10635); test: P450 2D6 inhibition; assay type: in vitro ADME
Sequence of P450 2D6 (P10635 whole entry): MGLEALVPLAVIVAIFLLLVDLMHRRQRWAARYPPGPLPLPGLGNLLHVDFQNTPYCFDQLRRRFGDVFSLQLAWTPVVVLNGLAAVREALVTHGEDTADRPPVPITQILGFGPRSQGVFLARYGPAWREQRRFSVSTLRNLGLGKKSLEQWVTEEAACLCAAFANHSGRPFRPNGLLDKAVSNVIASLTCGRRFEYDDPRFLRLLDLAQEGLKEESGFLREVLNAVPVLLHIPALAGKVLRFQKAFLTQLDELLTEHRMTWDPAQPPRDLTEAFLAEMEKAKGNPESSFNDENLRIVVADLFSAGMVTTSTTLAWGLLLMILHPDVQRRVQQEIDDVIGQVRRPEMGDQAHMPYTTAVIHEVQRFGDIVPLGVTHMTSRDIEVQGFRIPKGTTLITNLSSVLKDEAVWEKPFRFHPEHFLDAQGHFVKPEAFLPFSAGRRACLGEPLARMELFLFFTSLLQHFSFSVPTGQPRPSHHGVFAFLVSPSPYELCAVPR
Excerpt: as §1

[2] = Rat fraction unbound in brain; assay type: in vitro ADME; conditions: read-out: Rat Fu (brain)
Excerpt: as §1

Rat intrinsic clearance = assay type: in vitro ADME
Excerpt: as §1

[3] = Human fraction unbound in plasma; assay type: in vitro ADME; conditions: read-out: Human Fu (plasma)
Excerpt: as §1

[4] = test system: amphetamine-induced hyperlocomotion in male Sprague-Dawley rats; test: Amphetamine-induced hyperlocomotion in rats; assay type: in vivo; conditions: rat; for percent reversal of amphetamine-induced hyperlocomotion: amphetamine 0.75 mg/kg s.c.
Method: Drugs: d-Amphetamine hemisulfate was obtained from Sigma (St. Louis, MO). Salt-correction was used to determine the correct amount of the d-amphetamine hemisulfate form in milligrams to add to sterile water in order to yield a 0.75 mg/mL solution, which would be dosed at 1 mL/kg body weight of each animal. […] The solutions were formulated so that animals were injected with a volume equal to 10 mL/kg body weight for all compounds. The appropriate amount according to the dosage was mixed in 10% Tween 80 (Sigma) in sterile water. The mixtures were then vortexed and stored in a 39° C. sonication bath for 1 hour, until in a solution or microsuspension (depending on dose).
Animals: Male Sprague-Dawley rats weighing 239-300 grams and averaging 265 g (Harlan, Inc., Indianapolis, IN) were used. They were housed in the animal care facility certified by the American Association for the Accreditation of Laboratory Animal Care (AALAC) under a 12-hour light/dark cycle (lights on: 6 a.m.; lights off: 6 p.m.) and had free access to food and water. The animals used in this experiment were food-deprived the evening before experimentation for oral dosing of compound/vehicle. The experimental protocols performed during the light cycle were approved by the Institutional Animals Care and Use Committee of Vanderbilt University and conformed to the guidelines established by the National Research Council Guide for the Care and Use of Laboratory Animals.
Amphetamine-induced Hyperlocomotion: Male Harlan Sprague Dawley rats were habituated in Smart Open Field locomotor activity test chambers (Hamilton-Kinder, San Diego, CA) with 16×16 photo beams to automatically record locomotor activity. […] They were monitored for an additional 30 minutes and then injected subcutaneously with vehicle or 0.75 mg/kg amphetamine. Animals were then monitored for an additional 60 minutes, for a total of 120 minutes. Data were expressed as changes in ambulation defined as total number of beam breaks per 5 minute interval. Terminal brain and plasma samples were collected at the end of the study for pharmacokinetic analysis.
Data Analysis: Behavioral data were analyzed using a two-way ANOVA with main effects of treatment and time. Post hoc analysis was performed using a Dunnett's t-test with all treatment groups compared to the Vehicle/amphetamine group (VAMP) group using GraphPad Prism V.5.04 (GraphPad Software, San Diego, CA). Data were graphed using GraphPad Prism V.5.04 (GraphPad Software, San Diego, CA). A probability of p≤0.05 was taken as the level of statistical significance. In addition, the total number of beam breaks from the amphetamine administration (65 min) to the end of the study (120 min) was calculated and graphed. Percent Reversal was calculated as follows using Microsoft Excel: In each animal, total ambulation from t=65 to t=120 was summed. The mean of each sum was calculated in the VAMP group. Then, for each animal, Percent Reversal was calculated with the following formula: Percent Reversal=100−{[(total ambulation in each animal from t=65 to t=120)/(mean of each sum from t=65 to t=120 in VAMP group)]*100}. The mean Percent Reversal, as well as the standard error, was calculated for each dose group using GraphPad Prism V5.04.

[5] = In vivo pharmacokinetic study in dog
[6] = Rat fraction unbound in plasma; assay type: in vitro ADME; conditions: read-out: Rat Fu (plasma)
Excerpt: as §1

P450 1A2 = target: T1, P450 1A2 (Homo sapiens, UniProt P05177); test: P450 1A2 inhibition; assay type: in vitro ADME
T1 sequence (P05177 1-516): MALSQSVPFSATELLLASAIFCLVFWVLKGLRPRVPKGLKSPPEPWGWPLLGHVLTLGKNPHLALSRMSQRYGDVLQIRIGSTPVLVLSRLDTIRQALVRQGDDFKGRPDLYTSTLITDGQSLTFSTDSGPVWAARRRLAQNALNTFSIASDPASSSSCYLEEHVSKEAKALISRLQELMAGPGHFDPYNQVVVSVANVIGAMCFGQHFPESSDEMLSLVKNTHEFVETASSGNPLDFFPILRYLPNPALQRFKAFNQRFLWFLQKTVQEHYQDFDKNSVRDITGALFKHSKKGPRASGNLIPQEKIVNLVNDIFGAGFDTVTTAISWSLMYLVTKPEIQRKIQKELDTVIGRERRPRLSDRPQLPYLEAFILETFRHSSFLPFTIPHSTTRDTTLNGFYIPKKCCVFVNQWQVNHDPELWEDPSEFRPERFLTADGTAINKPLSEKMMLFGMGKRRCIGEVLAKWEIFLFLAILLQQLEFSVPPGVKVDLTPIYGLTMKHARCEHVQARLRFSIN
Excerpt: as §1

P450 2C9 = P450 2C9 (Homo sapiens, UniProt P11712); test: P450 2C9 inhibition; assay type: in vitro ADME
Sequence of P450 2C9 (P11712 whole entry): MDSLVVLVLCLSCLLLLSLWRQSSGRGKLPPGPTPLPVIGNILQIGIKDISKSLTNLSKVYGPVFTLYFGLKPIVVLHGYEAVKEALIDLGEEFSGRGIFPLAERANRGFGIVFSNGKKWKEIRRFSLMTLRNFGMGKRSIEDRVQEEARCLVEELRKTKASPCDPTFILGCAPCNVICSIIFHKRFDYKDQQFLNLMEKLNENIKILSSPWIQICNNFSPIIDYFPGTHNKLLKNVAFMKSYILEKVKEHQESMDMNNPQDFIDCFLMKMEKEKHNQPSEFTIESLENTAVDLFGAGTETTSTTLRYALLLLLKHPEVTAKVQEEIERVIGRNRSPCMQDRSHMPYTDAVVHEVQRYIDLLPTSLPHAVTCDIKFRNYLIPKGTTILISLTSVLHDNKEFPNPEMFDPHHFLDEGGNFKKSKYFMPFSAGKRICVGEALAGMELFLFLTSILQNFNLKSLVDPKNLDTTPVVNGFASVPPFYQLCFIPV
Excerpt: as §1

[7] = In vivo pharmacokinetic study in rat

Papp A→B [1]: 45.5 ×10⁻⁶ cm/s
MDCK-MDR1 ER (MDCK-MDR1): 1.3
CLint scaled (Dog intrinsic clearance): 19 mL/min/kg
IC50 (P450 2D6): > 100 µM
fraction unbound [2]: 0.015
CLint scaled (Rat intrinsic clearance): 90 mL/min/kg
fraction unbound [3]: 0.022
Dog oral F ([5]; 3 mg/kg oral): 89%
clearance ([5]; plasma, read-out: Dog CLp): 1.8 mL/min/kg
half-life ([5]; plasma, read-out: Dog Elim. t1/2 (converted)): 7.6 h
Vd ([5]; plasma, read-out: Dog Vss): 1 L/kg
fraction unbound [6]: 0.026
IC50 (P450 1A2): > 100 µM
IC50 (P450 2C9): > 100 µM
Rat oral F ([7]; 3 mg/kg oral): >100%
Kp ([7]; brain, read-out: Rat brain: plasma Kp): 1.2
Kp uu ([7]; brain, unbound, read-out: Rat brain: plasma Kp, uu): 0.7
clearance ([7]; plasma, read-out: Rat CLp): 16.9 mL/min/kg
half-life ([7]; plasma, read-out: Rat Elim. t1/2 (converted)): 1.4 h
Vd ([7]; plasma, read-out: Rat Vss): 1.6 L/kg
SMILES: [2H]C1([2H])Oc2ccc(OC3CCN(c4nc5c(cc4C)C(=O)NC5)CC3)cc2OC1([2H])[2H] [Compound 3, 2-(4-((2,3-dihydrobenzo[b][1,4]dioxin-6-yl-2,2,3,3-d4)oxy)piperidin-1-yl)-3-methyl-6,7-dihydro-5H-pyrrolo[3,4-b]pyridin-5-one]
percent reversal of amphetamine-induced hyperlocomotion ([4]; 1 mg/kg oral gavage): 27.5%
percent reversal of amphetamine-induced hyperlocomotion ([4]; 1.8 mg/kg oral gavage): 40.1%
percent reversal of amphetamine-induced hyperlocomotion ([4]; 3 mg/kg oral gavage): 59.1%
percent reversal of amphetamine-induced hyperlocomotion ([4]; 5.6 mg/kg oral gavage): 60.9%
reversal of amphetamine-induced hyperlocomotion (in words) ([4]; systemic administration): significant and sustained reversal
